Activity calls are given as the source filed them. The calls are words filed in the database; no cut-off is given here.

Series [1] has as its system Cowpox virus. The experiment in a line: Antiviral activity against Cowpox virus Brighton infected BALB/c mouse assessed as mortality at 3 mg/kg, po treated for 5 days after 48 hrs of viral inoculation. The class given is functional, Cowpox virus (Brighton Red).
The test system of series [2] is Liver. Briefly: Drug level in Swiss Webster mouse liver at 10 mg/kg, ip after 1 hr. It is filed as ADME, organism-based. Also on record: dose 10 mg/kg, route intraperitoneal. Conditions: in vivo.
In series [3] the test system is Liver. Briefly: Drug level in Swiss Webster mouse liver at 10 mg/kg, po after 3 hrs. Conditions: in vivo. It is filed as ADME, organism-based. Details: dose 10 mg/kg, route oral.
The subject of series [4] is Mus musculus. Briefly: Plasma concentration in Swiss Webster mouse at 10 mg/kg, po after 24 hrs by liquid scintillation counting. It is filed as ADME, organism-based. Conditions: in vivo. Also on record: dose 10 mg/kg, route oral.
Series [5] can be described thus: Oral bioavailability in Swiss Webster mouse at 10 mg/kg. The class given is ADME, organism-based. The conditions noted are these: in vivo.
The subject of series [6] is Mus musculus. Briefly: Plasma concentration in Swiss Webster mouse at 10 mg/kg, ip after 24 hrs by liquid scintillation counting. It is filed as ADME, organism-based. Details: dose 10 mg/kg, route intraperitoneal. Conditions: in vivo.
Series [7] relates to Mus musculus. Briefly: AUC (0 to 24hrs) in Swiss Webster mouse plasma at 10 mg/kg, po. The class given is ADME, organism-based. Details: time < 24 hr, dose 10 mg/kg, route oral. Conditions: in vivo.
A short description of series [8]: Tmax in Swiss Webster mouse at 10 mg/kg, po. The class given is ADME, organism-based. Details: dose 10 mg/kg, route oral. Conditions: in vivo.
For series [9], the system named is Mus musculus. Briefly: AUC (0 to 24hrs) in Swiss Webster mouse plasma at 10 mg/kg, ip. It is filed as ADME, organism-based. Details: time < 24 hr, dose 10 mg/kg, route intraperitoneal. Conditions: in vivo.
Series [10] is described as follows: Tmax in Swiss Webster mouse at 10 mg/kg, ip. The conditions noted are these: in vivo. The class given is ADME, organism-based. Details: dose 10 mg/kg, route intraperitoneal.
Series [11] is described as follows: Cmax in Swiss Webster mouse at 10 mg/kg, ip. It is filed as ADME, organism-based. Details: dose 10 mg/kg, route intraperitoneal. Conditions: in vivo.
The nature of series [12]: Cmax in Swiss Webster mouse at 10 mg/kg, po. Also on record: dose 10 mg/kg, route oral. It is filed as ADME, organism-based. Conditions: in vivo.
Series [13] is described as follows: Half life in Swiss Webster mouse at 10 mg/kg, ip. Conditions: in vivo. The class given is ADME, organism-based. Also on record: dose 10 mg/kg, route intraperitoneal.
Series [14] can be described thus: Half life in Swiss Webster mouse at 10 mg/kg, po. Conditions: in vivo. Also on record: dose 10 mg/kg, route oral. It is filed as ADME, organism-based.
The nature of series [15]: Selectivity index, ratio of CC50 for HFF cells to EC50 for Cowpox virus Brighton. The class given is toxicity, cell-based. The conditions noted are these: human, read-out: Ratio CC50/EC50.
For series [16], the system named is Cowpox virus. The experiment in a line: Antiviral activity against Cowpox virus Brighton infected BALB/c mouse assessed as reduction of virus titer in lung at 30 mg/kg, po treated for 5 days after 24 hrs of viral inoculation. The class given is functional, organism-based. Details: dose 30 mg/kg. The conditions noted are these: Cowpox virus (Brighton Red).
For series [17], the system named is Vaccinia virus. Briefly: Toxicity in Vaccinia virus WR infected BALB/c mouse assessed as survival at 30 mg/kg, po treated for 5 days after 24 hrs of viral inoculation. Details: dose 30 mg/kg. The class given is functional, organism-based. The conditions noted are these: Orthopoxvirus vaccinia.
The subject of series [18] is Cowpox virus. The experiment in a line: Antiviral activity against Cowpox virus Brighton infected BALB/c mouse assessed as mean death day at 10 mg/kg, po treated for 5 days after 72 hrs of viral inoculation. It is filed as functional, Cowpox virus (Brighton Red).
In series [19] the test system is Cowpox virus. The experiment in a line: Antiviral activity against Cowpox virus Brighton infected BALB/c mouse assessed as mean death day at 30 mg/kg, po treated for 5 days after 72 hrs of viral inoculation. The class given is functional, Cowpox virus (Brighton Red).
Series [20] concerns Cowpox virus. Briefly: Antiviral activity against Cowpox virus Brighton infected BALB/c mouse assessed as mean death day at 30 mg/kg, po treated for 5 days after 24 hrs of viral inoculation. The class given is functional, Cowpox virus (Brighton Red).
The test system of series [21] is Cowpox virus. Briefly: Antiviral activity against Cowpox virus Brighton infected BALB/c mouse assessed as mortality at 3 mg/kg, po treated for 5 days after 72 hrs of viral inoculation. It is filed as functional, Cowpox virus (Brighton Red).
Series [22] deals with Cowpox virus. Briefly: Antiviral activity against Cowpox virus Brighton infected BALB/c mouse assessed as mortality at 10 mg/kg, po treated for 5 days after 72 hrs of viral inoculation. The class given is functional, Cowpox virus (Brighton Red).
Series [23] has as its system Cowpox virus. Briefly: Antiviral activity against Cowpox virus Brighton infected BALB/c mouse assessed as mortality at 30 mg/kg, po treated for 5 days after 48 hrs of viral inoculation. It is filed as functional, Cowpox virus (Brighton Red).
Series [24] deals with Vaccinia virus. Briefly: Antiviral activity against Vaccinia virus WR infected BALB/c mouse assessed as mortality at 30 mg/kg, po treated for 5 days after 48 hrs of viral inoculation. It is filed as functional, Orthopoxvirus vaccinia.
In series [25] the test system is Vaccinia virus. The experiment in a line: Antiviral activity against Vaccinia virus WR infected BALB/c mouse assessed as mortality at 30 mg/kg, po treated for 5 days after 24 hrs of viral inoculation. It is filed as functional, Orthopoxvirus vaccinia.
The subject of series [26] is Lung. The experiment in a line: Drug level in Swiss Webster mouse lung at 10 mg/kg, po after 3 hrs. The class given is ADME, organism-based. Also on record: dose 10 mg/kg, route oral. The conditions noted are these: in vivo.
In series [27] the test system is Kidney. Briefly: Drug level in Swiss Webster mouse kidney at 10 mg/kg, po after 3 hrs. It is filed as ADME, organism-based. Details: dose 10 mg/kg, route oral. Conditions: in vivo.
In series [28] the test system is Lung. The experiment in a line: Drug level in Swiss Webster mouse lung at 10 mg/kg, ip after 1 hr. The class given is ADME, organism-based. Also on record: dose 10 mg/kg, route intraperitoneal. Conditions: in vivo.
The subject of series [29] is Kidney. Briefly: Drug level in Swiss Webster mouse kidney at 10 mg/kg, ip after 1 hr. The conditions noted are these: in vivo. Details: dose 10 mg/kg, route intraperitoneal. The class given is ADME, organism-based.

For the compound `CCCCCCCCCCCCCCCCOCCCOP(=O)(O)CO[C@H](CO)Cn1cnc2c(N)ncnc21`, the Activity in series [1] is 87%; in series [17], “Not toxic”; in series [18], 12.3 days; in series [19], 6.5 days; in [20] it was 15 days; in series [21], 87%. In addition, the Activity in [22] was 73%; in series [23], 13%; in [24] it was 7%; in series [25], 13%. The Drug uptake in [2] came out at 130 nmol/g; in series [3], 21 nmol/g; in series [26], 1.9 nmol/g; in series [27] it was 5.1 nmol/g; in series [28], 2.8 nmol/g; in series [29], 23 nmol/g. Further, the concentration in series [4] worked out at 30 nM; in [6], 80 nM. The same compound returned a bioavailability in [5] of 74%. Moreover, the results for the AUC in series [7] and in series [9] were 12.1 nmol·h/g and 16.4 nmol·h/g, respectively. In addition, the Tmax was found to be 1 h in series [8] and 3 h in [10]. Further, the highest concentration (Cmax) in series [11] stood at 2200 nM; in series [12], 1100 nM. In addition, the figures for the half-life in series [13] and in [14] were 2.5 h and 11.5 h, respectively. Further, in series [15], the selectivity ratio is 485. In series [16], the outcome was inactive.

As to `CCCCCCCCCCCCCCCCCCOCCOP(=O)(O)CO[C@H](CO)Cn1cnc2c(N)ncnc21`, the Activity was 80% in [1]; “Not toxic” in series [17]; 12.2 days in series [18]; 10.6 days in series [19]; 13 days in [20]; 93% in [21]. The Activity stood at 67% in [22], 13% in series [23], 40% in [24] and 27% in series [25]. In series [15], the selectivity ratio was 75. For the same compound, the outcome in series [16] was inactive.

As a reminder, the bioavailability is the share of a dose that reaches the circulation, judged against a reference dose that is usually intravenous. High values mean much systemic uptake, low ones little systemic uptake. As usually defined, the Tmax is the time from dosing to the highest level. One may read the Cmax as the highest concentration seen after dosing. One may read the half-life as how long it takes for the measured level to halve. A lower half-life goes with rapid decline.

Source of the values: ChEMBL document CHEMBL1137662, “Effect of oral treatment with hexadecyloxypropyl-[(S)-9-(3-hydroxy-2- phosphonylmethoxypropyl)adenine] [(S)-HPMPA] or octadecyloxyethyl-(S)-HPMPA on cowpox or vaccinia virus infections in mice” (Antimicrob Agents Chemother, 2007).
